This note sets out measurements from patent US20200360471A1, “METHODS OF TREATING AND PREVENTING VIRAL INFECTIONS” (priority 2017, published 2020).

Peptide text beside a SMILES is read from it. * marks the point of attachment. Decanoyl = CCCCCCCCCC(=O)*; CH2Cl = ClC*

The subject of experiment [1] is TLR7. Description: Ongoing inflammation in PBMC cultures: imiquimod 3 hrs followed by omiganan 21 hrs. Conditions: imiquimod alone, PBMC. In kind it is cell-based, human. The procedure: (§1) Primary cell cultures were prepared in RPMI including 5% autologous plasma. Isolated PBMC cells were cultured in 96-well plates at a density of 0.5×10^6cells/well at 37° C., under humidified 5% CO2.
(§2) IL-1β, TNFα, IL-6 and IL-8 were measured simultaneously with a fixed electrochemoluminescence platform based on the sandwich ELISA principle of capture and detection antibodies, produced by MESO SCALE DISCOVERY (MSD, MESO SCALE QUICKPLEX SQ120). The applied assay was the V-PLEX PLUS pro-inflammatory cytokine panel II, including IL-1β, TNFα, IL-6 and IL-8. This assay includes manufacturer-provided control samples with indicated nominal values for comparison. These lyophilized controls, i.e. freeze-dried controls for IL-1β, TNFα, IL-6, IL-8, were prepared freshly at the time of use. QC samples were prepared from the calibrator at 3 different concentrations along the standard curve as multiple aliquots from a single batch and maintained at −20° C. Low, medium and high concentration controls were included in every multiplex assay run to control intra- and inter-assay variation. V-PLEX panels are specific for the detection of human chemokines and cytokines, and combinations have been validated by the manufacturer, to ensure no cross-reactivity.
Briefly, PBMC primary cultures were prepared from 4 donors. […] The readouts for the following cytokine and chemokine release were measured: IL-1β, IL-2, IL-4, IL-6, IL-8 HA, IL-8, IL-12p70, IL-13, IFN-γ, and TNF-α were measured. The cultures were prepared in duplicate.

The test system of experiment [2] is HPVS PsV. Particulars: read-out: IC50, inhibition of uptake of HPVS PsV; PsV 1:6000 dilution, 293TT cells. How it is done: Pseudovirus (PsV) of HPVS was prepared using method described by Buck et al, (Journal of Virology, January 2004; 751-757) and used as a model HPV in this study. The PsV stocks were prepared by co-transfecting human 293TT cells with HPVS viral plasmid p5Shell containing codon-modified papillomavirus capsid genes for L1 and L2 proteins, and pcLucF reporter plasmid containing the luciferase gene for detecting viral infection. The cell lysates containing the capsidized virus was used as the PsV stock. Optimal PsV dilution factor was determined based on the luciferase activity in 293TT cells infected with serially diluted HPVS PsV.
Data were collected on a Molecular Devices Flexstation 3 Microplate Reader using Softmax Pro v5.4.4. Data analysis was performed on Prism software using four parameter logistic model. […] Furin Inhibitor I was used as a positive control for HPVS PsV inhibition since it blocks the viral entry into host cells.
Two runs were performed for each dilution level.

Experiment [3] concerns TLR3/RIG-1/Mda5. Put plainly: polyI:C-induced cytokine responses in PBMC cultures with peptide pre-treatment. In kind it is cell-based, human. Particulars: 5 or 25 μg/mL peptide, 30 min pre-treatment, 24 hrs. The procedure: as §1, §2
(§3) IFNα was quantified by a sandwich ELISA based on specific capture and detection antibodies for various matrices (MABTECH), according to the manufacturer's instructions. QC samples were prepared from the calibrator at 3 different concentrations along the standard curve as multiple aliquots from a single batch and maintained at −20° C.
(§4) IFNβ was quantified by a sandwich ELISA based on specific capture and detection antibodies for various matrices (PBL ASSAY SCIENCE), according to the manufacturer's instructions. QC samples were prepared from the calibrator at 3 different concentrations along the standard curve as multiple aliquots from a single batch and maintained at −20° C. freezer.
(§5) Briefly, PBMC primary cultures were prepared from 4 healthy donors (2 males, 2 females) as described above. […] The cultures were prepared in duplicate and the readouts for pan-IFNα and IFNβ (ELISA) were measured once. Five-point concentration-response curves were constructed for the various treatment conditions in the PBMC cultures, freshly isolated from 4 subjects.

In experiment [4] the test system is TLR7. Put plainly: imiquimod-induced cytokine responses in PBMC cultures with peptide pre-treatment. In kind it is cell-based, human. How it is done:
as §1, §2, §3, §4, §5

For experiment [5], the system named is toll-like receptor 3 (TLR3) pathways / RIG-1/Mda5. Description: Qualification of the polyI:C PBMC challenge (cytokine release, 24 hrs). In kind it is cell-based, human. The procedure: Peripheral Blood Mononuclear Cells (PBMCs) were isolated from sodium heparinized blood samples from healthy donors using SEPMATE with LYMPHOPREP ([…] TECHNOLOGIES) based on ficoll density centrifugation. Primary cell cultures were prepared in RPMI including 5% autologous plasma. Isolated PBMC cells were cultured in 96-well plates at a density of 0.5×10^6cells/well at 37° C., under humidified 5% CO2.
IL-1β, TNFα, IL-6 and IL-8 were measured simultaneously with a fixed electrochemoluminescence platform based on the sandwich ELISA principle of capture and detection antibodies, produced by MESO SCALE DISCOVERY (MSD, MESO SCALE QUICKPLEX SQ120). The applied assay was the V-PLEX PLUS pro-inflammatory cytokine panel II, including IL-1β, TNFα, IL-6 and IL-8. This assay includes manufacturer-provided control samples with indicated nominal values for comparison. These lyophilized controls, i.e. freeze-dried controls for IL-1β, TNFα, IL-6, IL-8, were prepared freshly at the time of use. […]
IFNα was quantified by a sandwich ELISA based on specific capture and detection antibodies for various matrices (MABTECH), according to the manufacturer's instructions. […]
IFNβ was quantified by a sandwich ELISA based on specific capture and detection antibodies for various matrices (PBL ASSAY SCIENCE), according to the manufacturer's instructions. […]

The mark [6] stands for this setting: 5 or 25 μg/mL peptide, 30 min pre-treatment, 24 hrs.
The mark [7] stands for this setting: right-shift of imiquimod concentration response curves.

With `CC(C)Cn1cnc2c(N)nc3ccccc3c21` [Imiquimod, imiquimod], in experiment [1], the “concentration-effect relationship for IL-6 and TNF-α” value was “bell-shaped”; the “imiquimod concentration inducing IL-6 release” value was “exceeding 0.4 μg/ml”; the “imiquimod concentration inducing IL-8 release” value is reported as “exceeding 0.4 μg/ml”; the “imiquimod concentration inducing TNF-α release” value is “exceeding 0.4 μg/ml”. Further, the “imiquimod concentration needed for IL-10 release” value in experiment [1] is listed as “exceeding 2 μg/ml”.

Take `CCCCCCCCCC(=O)N[C@@H](CCCN=C(N)N)C(=O)N[C@H](C(=O)N[C@@H](CCCCN)C(=O)N[C@@H](CCCN=C(N)N)C(=O)CCl)C(C)C` [Furin Inhibitor I, reference compound] (Decanoyl-RVKR-CH2Cl): the IC50 in experiment [2] was found to be 200 nM.

With “LLGDFFRKSKEKIGKEFKRIVQRIKDFLRNLVPRTES (LLGDFFRKSKEKIGKEFKRIVQRIKDFLRNLVPRTES; LL-37 peptide) [antimicrobial peptide belonging to the cathelicidin family, synthesized by ANASPEC]”, in experiment [3], the “IL-6 responses to polyI:C (TLR3/RIG-1/Mda5)” value is “did not significantly affect”; the “TNFα responses to polyI:C (TLR3/RIG-1/Mda5)” value is on record as “did not significantly affect”; the “polyI:C-driven IL-1β release” value was “did not significantly affect”; the “spontaneous and polyI:C-driven IL-8 release” value is given as “strongly inhibited”. In experiment [3] (PBMC of 4 donors), the “interferon responses induced by polyI:C stimulation” value is “enhanced”. In experiment [4] (setting [6]), the “IL-6 responses to imiquimod (TLR7)” value is given as “inhibited” and the “TNFα responses to imiquimod (TLR7)” value is recorded as “inhibited”. Moreover, the “interferon responses in the presence of imiquimod” value in experiment [4] (5 or 25 μg/mL peptide, 30 min pre-treatment, 24 hrs, PBMC of 4 donors) is “induced strong interferon responses”. In experiment [4] (setting [7]), the “IL-1(3 responses to imiquimod (TLR7))” value is recorded as “inhibited” and the “IL-8 responses to imiquimod (TLR7)” value is “inhibited”.

In the case of PolyI:C, the “PBMC response (cytokines)” value is recorded as “mild PBMC response” in experiment [5] (absence of the transfection carrier Lyovec) and “substantial polyI:C-driven responses” in experiment [5] (presence of Lyovec transfection carrier).
